Test results: US12331044B2, “Inhibitors of histone deacetylase useful for the treatment or prevention of HIV infection” (Merck Sharp & Dohme LLC, priority 2018, dated 2025)
Like-named read-outs stand apart in the source and are kept apart here.

Key:
human HDAC2 = human HDAC2 (Homo sapiens (Human), UniProt Q92769); assay: HDAC2 inhibition assay (modified FLUOR DE LYS, 384-well); format: biochemical; conditions: […] enzyme, 40 μM substrate BML-KI104, 3 h pre-incubation; read-out: HDAC2 IC50
human HDAC8 = human HDAC8 (Homo sapiens (Human), UniProt Q9BY41); assay: HDAC8 inhibition assay (modified FLUOR DE LYS, 384-well); format: biochemical; conditions: […] enzyme, 200 μM substrate BML-KI178, 3 h pre-incubation; read-out: HDAC8 IC50
Chain of human HDAC8 (Q9BY41 whole entry): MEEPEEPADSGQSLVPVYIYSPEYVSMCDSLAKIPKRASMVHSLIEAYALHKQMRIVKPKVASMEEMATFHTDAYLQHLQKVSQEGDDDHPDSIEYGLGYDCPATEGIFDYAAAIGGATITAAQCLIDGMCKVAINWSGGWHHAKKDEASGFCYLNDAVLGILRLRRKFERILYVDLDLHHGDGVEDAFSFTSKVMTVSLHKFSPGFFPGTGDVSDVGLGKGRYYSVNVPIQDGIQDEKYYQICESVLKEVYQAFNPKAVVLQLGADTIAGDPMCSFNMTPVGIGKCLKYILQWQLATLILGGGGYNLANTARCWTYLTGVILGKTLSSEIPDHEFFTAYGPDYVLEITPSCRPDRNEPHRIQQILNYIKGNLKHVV

human HDAC1 = human HDAC1 (Homo sapiens (Human), UniProt Q13547)
Chain of human HDAC1 (Q13547 whole entry): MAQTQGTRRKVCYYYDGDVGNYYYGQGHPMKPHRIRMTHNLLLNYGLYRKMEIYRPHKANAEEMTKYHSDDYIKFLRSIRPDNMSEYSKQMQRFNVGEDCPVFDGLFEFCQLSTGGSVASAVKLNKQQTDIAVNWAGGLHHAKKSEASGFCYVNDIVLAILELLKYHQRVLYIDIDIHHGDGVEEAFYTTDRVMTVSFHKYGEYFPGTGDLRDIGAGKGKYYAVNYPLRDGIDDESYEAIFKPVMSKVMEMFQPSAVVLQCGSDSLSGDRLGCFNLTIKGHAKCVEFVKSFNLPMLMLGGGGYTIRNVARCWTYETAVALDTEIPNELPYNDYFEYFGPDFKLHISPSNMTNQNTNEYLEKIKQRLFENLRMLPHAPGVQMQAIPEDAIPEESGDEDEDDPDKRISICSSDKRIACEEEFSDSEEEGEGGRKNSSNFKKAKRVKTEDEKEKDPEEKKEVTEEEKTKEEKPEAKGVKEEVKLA

[1] = target: human HDAC3/SMRT heterodimer (Homo sapiens (Human), UniProt O15379)
Chain of human HDAC3/SMRT heterodimer (O15379 whole entry): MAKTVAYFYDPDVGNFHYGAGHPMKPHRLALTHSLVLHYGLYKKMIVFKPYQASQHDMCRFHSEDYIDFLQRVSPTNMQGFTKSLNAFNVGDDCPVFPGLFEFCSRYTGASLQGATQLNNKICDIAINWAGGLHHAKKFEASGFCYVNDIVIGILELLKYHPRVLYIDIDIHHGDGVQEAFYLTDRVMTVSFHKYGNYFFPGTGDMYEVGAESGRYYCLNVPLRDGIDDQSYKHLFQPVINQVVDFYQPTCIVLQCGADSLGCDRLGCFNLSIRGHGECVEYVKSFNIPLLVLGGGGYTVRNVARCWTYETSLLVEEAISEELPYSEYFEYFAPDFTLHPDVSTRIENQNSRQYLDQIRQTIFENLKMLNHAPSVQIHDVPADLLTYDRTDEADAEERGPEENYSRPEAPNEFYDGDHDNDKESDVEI
Chain of human HDAC3/SMRT heterodimer (Q9Y618 1-899 partner): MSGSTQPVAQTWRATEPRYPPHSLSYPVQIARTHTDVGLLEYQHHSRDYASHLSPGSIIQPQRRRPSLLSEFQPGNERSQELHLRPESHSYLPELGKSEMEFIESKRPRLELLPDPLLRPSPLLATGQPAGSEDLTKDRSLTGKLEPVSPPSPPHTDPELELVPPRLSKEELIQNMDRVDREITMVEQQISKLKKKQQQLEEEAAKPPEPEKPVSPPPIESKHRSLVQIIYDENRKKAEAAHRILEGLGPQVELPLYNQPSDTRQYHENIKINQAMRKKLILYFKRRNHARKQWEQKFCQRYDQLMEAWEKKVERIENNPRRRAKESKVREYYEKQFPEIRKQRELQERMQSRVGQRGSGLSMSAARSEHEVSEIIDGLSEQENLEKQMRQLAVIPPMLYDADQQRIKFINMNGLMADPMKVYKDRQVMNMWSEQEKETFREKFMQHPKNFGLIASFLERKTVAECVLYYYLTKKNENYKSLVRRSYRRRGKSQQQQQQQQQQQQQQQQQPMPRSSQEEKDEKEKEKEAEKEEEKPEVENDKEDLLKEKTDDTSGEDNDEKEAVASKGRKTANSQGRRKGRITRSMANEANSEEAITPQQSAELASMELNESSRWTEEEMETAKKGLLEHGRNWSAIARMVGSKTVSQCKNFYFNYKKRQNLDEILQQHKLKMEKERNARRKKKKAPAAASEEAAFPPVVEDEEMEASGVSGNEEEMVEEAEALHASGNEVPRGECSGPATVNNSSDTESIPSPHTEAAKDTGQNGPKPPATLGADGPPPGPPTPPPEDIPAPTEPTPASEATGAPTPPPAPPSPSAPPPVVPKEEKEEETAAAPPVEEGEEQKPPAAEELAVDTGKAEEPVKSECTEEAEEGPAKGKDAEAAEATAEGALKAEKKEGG

HDAC6 = HDAC6 (Homo sapiens (Human), UniProt Q9UBN7)
Chain of HDAC6 (Q9UBN7 whole entry): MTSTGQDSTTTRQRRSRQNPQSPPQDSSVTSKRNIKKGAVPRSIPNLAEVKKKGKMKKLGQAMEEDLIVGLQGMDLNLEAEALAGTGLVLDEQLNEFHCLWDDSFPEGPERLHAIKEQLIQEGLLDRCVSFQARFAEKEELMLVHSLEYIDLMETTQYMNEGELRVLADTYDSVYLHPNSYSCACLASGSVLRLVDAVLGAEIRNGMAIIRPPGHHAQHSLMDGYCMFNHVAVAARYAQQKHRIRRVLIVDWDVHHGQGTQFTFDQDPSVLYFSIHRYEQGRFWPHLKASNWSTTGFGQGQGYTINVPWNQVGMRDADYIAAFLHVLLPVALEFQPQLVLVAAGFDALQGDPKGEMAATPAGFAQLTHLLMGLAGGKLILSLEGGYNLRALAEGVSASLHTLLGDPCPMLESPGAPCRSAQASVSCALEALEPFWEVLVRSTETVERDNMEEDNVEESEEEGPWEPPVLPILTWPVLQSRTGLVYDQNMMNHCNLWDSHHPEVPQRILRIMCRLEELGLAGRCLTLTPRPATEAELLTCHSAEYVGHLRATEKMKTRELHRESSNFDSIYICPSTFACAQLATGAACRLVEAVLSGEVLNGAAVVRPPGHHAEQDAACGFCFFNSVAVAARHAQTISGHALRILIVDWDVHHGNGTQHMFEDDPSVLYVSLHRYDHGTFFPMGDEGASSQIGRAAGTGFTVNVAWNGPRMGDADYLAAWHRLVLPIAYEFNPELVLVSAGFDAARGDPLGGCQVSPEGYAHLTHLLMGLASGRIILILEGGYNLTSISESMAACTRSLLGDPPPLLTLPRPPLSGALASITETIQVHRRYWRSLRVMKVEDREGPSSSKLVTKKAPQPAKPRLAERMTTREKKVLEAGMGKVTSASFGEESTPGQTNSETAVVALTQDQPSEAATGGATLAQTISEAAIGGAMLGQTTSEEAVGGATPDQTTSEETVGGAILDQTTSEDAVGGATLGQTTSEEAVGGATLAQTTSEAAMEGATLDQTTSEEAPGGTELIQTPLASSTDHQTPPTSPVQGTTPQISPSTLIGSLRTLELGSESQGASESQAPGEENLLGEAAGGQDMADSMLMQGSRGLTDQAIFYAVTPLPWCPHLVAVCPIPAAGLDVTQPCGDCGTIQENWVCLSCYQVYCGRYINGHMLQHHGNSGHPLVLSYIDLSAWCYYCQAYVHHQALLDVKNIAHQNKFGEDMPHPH

KARN cells (Jurkat 2C4) = assay: cells; conditions: Homo sapiens
Experimental: KARN Assay Cell Maintenance
KARN cells (Jurkat 2C4) were licensed from the laboratory of Dr. John Karn, Case Western Reserve University, School of Medicine. […] An atmosphere of 5% CO2 and 90% humidity was used for all culture work.
These flasks were returned to the incubator.
The cells were gently resuspended in assay media (30 ml) and pelleted again. […] The cells were counted using the ViCell (Beckman Coulter) and diluted as necessary. […] The plates were covered and returned to the incubator prior to compound addition.
The reference compounds, DMSO and SAHA were then added to the compound plate. […] The final high concentration for SAHA and the test compounds in the assays was 40 μM. The final DMSO concentration in all wells was 0.4%. The minimal induction reference compound used was DMSO and the maximal induction reference compound used was SAHA (2 μM final concentration in the assay).
Day 3: The luciferase detection reagent was prepared by transferring the contents of one bottle of Steady-Glo buffer to one bottle of Steady-Glo aubstrate (Steady-Glo Luciferase Assay System, Promega, catalog number E2520), followed by gently mixing until the substrate was thoroughly dissolved and the solution was equilibrated to room temperature. […] The Steady-Glo Reagent was added to the plates (30 μl/well), which were then covered with a black lid and incubated for 10 minutes at room temperature. The plates were then read for luminescence on an Envision (Perkin Elmer) using the ultrasensitive mode (US LUM), 0.1 counts per second and 384-well aperture. Luminescence counts in the DMSO reference wells were considered as 0% induction, while those in the 2 μM SAHA reference wells were considered as 100% induction. Dose response curves were plotted as test compound concentration (X-axis) vs. percent activation (Y-axis) using a 4-parameter fit based on the Levenberg-Marquardt algorithm.

[2] = read-out: Karn EC50 nM 0.1% NHS, 0.1% normal human serum, luciferase induction, 2 μM SAHA = 100%
[3] = read-out: Karn EC50 nM 5% NHS, 5% normal human serum, luciferase induction, 2 μM SAHA = 100%

Chain of human HDAC2 (Q92769 whole entry): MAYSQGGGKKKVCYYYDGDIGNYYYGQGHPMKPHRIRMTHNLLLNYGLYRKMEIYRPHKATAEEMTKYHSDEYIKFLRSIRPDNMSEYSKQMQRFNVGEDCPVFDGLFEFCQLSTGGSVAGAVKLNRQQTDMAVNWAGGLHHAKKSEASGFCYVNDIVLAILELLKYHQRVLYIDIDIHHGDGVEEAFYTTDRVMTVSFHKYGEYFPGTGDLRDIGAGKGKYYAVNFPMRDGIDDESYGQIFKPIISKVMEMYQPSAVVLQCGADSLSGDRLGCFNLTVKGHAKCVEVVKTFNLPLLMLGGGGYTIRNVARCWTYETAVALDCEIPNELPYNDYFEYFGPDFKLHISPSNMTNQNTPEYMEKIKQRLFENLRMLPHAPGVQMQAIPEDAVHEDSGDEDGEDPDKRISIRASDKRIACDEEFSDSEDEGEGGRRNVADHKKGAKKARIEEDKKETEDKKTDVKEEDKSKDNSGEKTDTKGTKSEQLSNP

SMILES	IC50 (human HDAC2)	IC50 (human HDAC8)	IC50 (human HDAC1)	IC50 [1]	IC50 (HDAC6)	EC50 (KARN cells (Jurkat 2C4); [2])	EC50 (KARN cells (Jurkat 2C4); [3])
CN1CCC(C(=O)N[C@@H](CCCCCC(=O)c2nccs2)c2nc(-c3ccc(F)cc3)c[nH]2)CC1 [Example 6, (S)-N-(1-(4-(4-fluorophenyl)-1H-imidazol-2-yl)-7-oxo-7-(thiazol-2-yl)heptyl)-1-methylpiperidine-4-carboxamide]	0.014 µM	0.055 µM	0.0029 µM	0.0015 µM	45 µM	87 nM	160 nM
N[C@@H](CCCCCC(=O)c1ncco1)c1nc(-c2ccc3nn(C4CC4)cc3c2)c[nH]1 [Example 14]	0.0045 µM	3.1 µM	0.0009 µM	0.0011 µM	45 µM	390 nM	270 nM
COc1nc2ccccc2cc1-c1c[nH]c([C@@H](N)CCCCCC(=O)c2ncco2)n1 [Example 15]	0.018 µM	0.72 µM	0.0052 µM	0.0073 µM	40 µM	180 nM	670 nM
CC(C)n1ccc2cc(-c3cnc([C@@H](N)CCCCCC(=O)c4ncco4)[nH]3)ccc2c1=O [Example 17]	0.017 µM	2.9 µM	0.0021 µM	0.0041 µM	45 µM	650 nM	590 nM
N[C@@H](CCCCCC(=O)c1ncco1)c1ncc(-c2ccc3nc(N4CCCC4)ccc3c2)[nH]1 [Example 19]	0.0094 µM	3.6 µM	0.002 µM	0.0015 µM	> 1.5 µM	210 nM	420 nM
COc1cc2c(ccc(=O)n2C)cc1-c1cnc([C@@H](N)CCCCCC(=O)c2ncco2)[nH]1 [Example 21]	0.0084 µM	0.49 µM	0.0019 µM	0.0015 µM	> 4.5 µM	110 nM	110 nM
Cc1ccc2cc(-c3cnc([C@@H](N)CCCCCC(=O)c4ncco4)[nH]3)c(Cl)cc2n1 [Example 22]	0.038 µM	1.5 µM	0.01 µM	0.0067 µM	45 µM	130 nM	290 nM
CCn1cc(-c2ccc3nc(C)ccc3c2)nc1[C@@H](N)CCCCCC(=O)c1ncco1 [Example 30, (S)-7-amino-7-(1-ethyl-4-(2-methylquinolin-6-yl)-1H-imidazol-2-yl)-1-(oxazol-2-yl)heptan-1-one]	0.23 µM	21 µM	0.049 µM	0.048 µM	38.8 µM	2500 nM	4000 nM
CN1CCC2(CC1)C[C@@H]2C(=O)N[C@@H](CCCCCC(=O)c1ccon1)c1nc(-c2ccccc2F)c[nH]1 [Example 39]	0.00057 µM	0.002 µM	0.0001 µM	0.00013 µM	45 µM	3 nM	4 nM
COc1nc2ccccc2cc1-c1c[nH]c([C@H](CCCCCC(=O)c2ccon2)NC(=O)C2CCN(C)CC2)n1 [Example 40]	0.0018 µM	0.0033 µM	0.0015 µM	0.0015 µM	2 µM	15 nM	58 nM
COc1nc2ccccc2cc1-c1cnc([C@H](CCCCCC(=O)c2ncco2)NC(=O)CN(C)C)[nH]1 [Example 41]	0.0026 µM	0.065 µM	0.00039 µM	0.00071 µM	3.3 µM	16 nM	140 nM
COc1nc2ccccc2cc1-c1cnc([C@H](CCCCCC(=O)c2ncco2)NC(=O)c2cncs2)[nH]1 [Example 42]	0.0054 µM	0.027 µM	0.0017 µM	0.0015 µM	13 µM	52 nM	340 nM
Cc1ccc2cc(-c3c[nH]c([C@H](CCCCCC(=O)c4ccon4)NC(=O)[C@H]4CC45CCN(C)CC5)n3)ccc2n1 [Example 44]	0.00097 µM	0.0057 µM	0.00024 µM	0.00026 µM	45 µM	9.5 nM	9.1 nM
Cc1cc(C(=O)CCCCC[C@H](N)c2nc(-c3ccccc3F)c[nH]2)no1 [Example 45]	0.076 µM	1.2 µM	0.0089 µM	0.019 µM	45 µM	460 nM	1900 nM
CN(C)CC(=O)N[C@@H](CCCCCC(=O)c1ncco1)c1ncc(-c2ccc3c(ccc(=O)n3C)c2)[nH]1 [Example 46]	0.0096 µM	0.091 µM	0.0017 µM	0.0015 µM	45 µM	31 nM	44 nM
Cc1cc(C(=O)CCCCC[C@H](NC(=O)CN(C)C)c2nc(-c3ccccc3F)c[nH]2)no1 [Example 48]	0.001 µM		0.00018 µM	0.00015 µM	45 µM	28 nM	69 nM
COc1nc2ccccc2cc1-c1cnc([C@H](CCCCCC(=O)c2ncco2)NC(=O)CCCN(C)C)[nH]1 [Example 55]	0.0021 µM		0.0003 µM	0.00048 µM	0.14 µM	12 nM	32 nM
NC(CCCCCC(=O)c1ccon1)c1cnn(-c2ccc(F)cc2)c1 (stereo not shown) [Example 121, 7-amino-7-[1-(4-fluorophenyl)-1H-pyrazol-4-yl]-1-isoxazol-3-ylheptan-1-one]			0.015 µM	0.014 µM	45 µM		
N[C@@H](CCCCCC(=O)c1ncco1)c1ncc(-c2cccc(F)c2F)[nH]1 [Example 136, (7S)-7-amino-7-[5-(2,3-difluorophenyl)-1H-imidazol-2-yl]-1-(1,3-oxazol-2-yl)heptan-1-one]	0.38 µM	> 0.9 µM	0.11 µM	0.1 µM	> 0.9 µM		
N[C@@H](CCCCCC(=O)c1ncco1)c1ncc(-c2cc(C(F)(F)F)ccc2F)[nH]1 [Example 137, (7S)-7-amino-7-{5-[2-fluoro-5-(trifluoromethyl)phenyl]-1H-imidazol-2-yl}-1-(1,3-oxazol-2-yl)heptan-1-one]	0.24 µM	> 0.9 µM	0.061 µM	0.045 µM	> 0.9 µM		
COc1nc2ccccc2cc1-c1cnc([C@H](CCCCCC(=O)c2ncco2)NC(=O)C2(c3cnccn3)CC2)[nH]1 [Example 155, N-[(1S)-1-[5-(2-methoxyquinolin-3-yl)-1H-imidazol-2-yl]-7-(1,3-oxazol-2-yl)-7-oxoheptyl]-1-pyrazin-2-ylcyclopropanecarboxamide]	0.0053 µM	0.053 µM	0.00081 µM	0.0013 µM		50 nM	600 nM
COc1cc2nc(C)ccc2cc1-c1cnc([C@H](CCCCCC(=O)c2ncco2)NC(=O)CN2CCNCC2=O)[nH]1 [Example 159, N-[(1S)-1-[5-(7-methoxy-2-methylquinolin-6-yl)-1H-imidazol-2-yl]-7-(1,3-oxazol-2-yl)-7-oxoheptyl]-2-(2-oxopiperazin-1-yl)acetamide]	0.0058 µM		0.00082 µM	0.0017 µM	2.9 µM	1500 nM	2900 nM
COc1cc2nc(C)ccc2cc1-c1cnc([C@H](CCCCCC(=O)c2ncco2)NC(=O)c2cc3n(n2)CCCC3)[nH]1 [Example 164]	0.018 µM		0.0033 µM	0.00087 µM	> 0.9 µM	85 nM	290 nM
